Data published in patent US20060018970A1, “Enoximone formulations and their use in the treatment of cardiac hypertrophy and heart failure” (Myogen, Inc., priority 2003, published 2006).
Like-named read-outs stand apart in the source and are kept apart here.

Experiments:
[1] = Solubility in the physiological pH range; format: physicochemical; details: data unpublished
[2] = tested on: patients with the most advanced stage of chronic heart failure dependent on intravenous inotrope therapy; details: cited from earlier work
[3] = tested on: type-III phosphodiesterase (PDE-III); details: cited from earlier work
[4] = clinical; details: human, in vivo, plasma concentration
[5] = clinical; details: human, plasma

Structure (SMILES): CSc1ccc(C(=O)c2[nH]c(=O)[nH]c2C)cc1 [enoximone, 1,3-Dihydro-4-methyl-5-[4-(methylthio)benzoyl]-2H-imidazol-2-one]
- solubility [1]: Limited solubility
- plasma concentration (Patient 1, dose 50 mg, PREDOSE): 69.7 ng/mL
- plasma concentration (Patient 4, dose 25 mg, HR ALIQUOT 1 (between 0.5 HR and 2 HR)): 65.8 ng/mL
- time to death or re-initiation of i.v. inotrope therapy ([2]; 60-day (p=0.012), 75-day (p=0.016) and 90-day (p=0.041) periods): benefit in favor of enoximone versus placebo
- time to death or re-initiation of i.v. inotrope therapy ([2]; 182-day period (p=0.188)): not
- mean total days on i.v. inotrope therapy over the course of the study ([2]; placebo 49 days, p=0.049): 28 days
- inhibition of type-III phosphodiesterase [3]: highly selective inhibition
- concentration at 0 h ([4]; Max): 150 ng/mL
- concentration at 2 h ([4]; Max): 400 ng/mL
- concentration at 4 h ([4]; Max): 200 ng/mL
- concentration at 8 h ([4]; Max): 150 ng/mL
- concentration at 0 h ([4]; Min): 0 ng/mL
- concentration at 2 h ([4]; Min): 20 ng/mL
- concentration at 4 h ([4]; Min): 15 ng/mL
- concentration at 8 h ([4]; Min): 0 ng/mL
- concentration at 0.5 h ([5]; 25 mg, Patient 4, dose 25 mg): 23.7 ng/mL
- concentration at 2 h ([5]; 25 mg, Patient 4, dose 25 mg, 2 HR): 63.6 ng/mL
- concentration at 0 h ([5]; 25 mg, Patient 4, dose 25 mg, PREDOSE): 18.6 ng/mL
- concentration at 2 h ([5]; 50 mg, Max, 2 hrs, after dosing of enoximone, 5 patients, raw data): 383 ng/mL
- concentration at 0.5 h ([5]; 50 mg, Patient 1, dose 50 mg): 118 ng/mL
- concentration at 1 h ([5]; 50 mg, Patient 1, dose 50 mg): 424 ng/mL
- concentration at 2 h ([5]; 50 mg, Patient 1, dose 50 mg, 2 HR): 383 ng/mL
- concentration at 4 h ([5]; 50 mg, Patient 1, dose 50 mg, 4 HR): 209 ng/mL
- concentration at 6 h ([5]; 50 mg, Patient 1, dose 50 mg): 112 ng/mL
- concentration at 0.5 h ([5]; 50 mg, Patient 2, dose 50 mg): 52.8 ng/mL
- concentration at 1 h ([5]; 50 mg, Patient 2, dose 50 mg): 49.8 ng/mL
- concentration at 2 h ([5]; 50 mg, Patient 2, dose 50 mg, 2 HR): 127 ng/mL
- concentration at 4 h ([5]; 50 mg, Patient 2, dose 50 mg, 4 HR): 237 ng/mL
- concentration at 6 h ([5]; 50 mg, Patient 2, dose 50 mg): 122 ng/mL
- concentration at 0 h ([5]; 50 mg, Patient 2, dose 50 mg, PREDOSE): 66.7 ng/mL
- concentration at 0.5 h ([5]; 50 mg, Patient 3, dose 50 mg): 92.4 ng/mL
- concentration at 1 h ([5]; 50 mg, Patient 3, dose 50 mg): 118 ng/mL
- concentration at 2 h ([5]; 50 mg, Patient 3, dose 50 mg, 2 HR): 110 ng/mL
- concentration at 4 h ([5]; 50 mg, Patient 3, dose 50 mg, 4 HR): 78.2 ng/mL
- concentration at 6 h ([5]; 50 mg, Patient 3, dose 50 mg): 71.7 ng/mL
- concentration at 0 h ([5]; 50 mg, Patient 3, dose 50 mg, PREDOSE): 34.4 ng/mL
- concentration at 0.5 h ([5]; 50 mg, Patient 5, dose 50 mg): 137 ng/mL
- concentration at 1 h ([5]; 50 mg, Patient 5, dose 50 mg): 355 ng/mL
- concentration at 2 h ([5]; 50 mg, Patient 5, dose 50 mg, 2 HR): 369 ng/mL
- concentration at 4 h ([5]; 50 mg, Patient 5, dose 50 mg, 4 HR): 268 ng/mL
- concentration at 6 h ([5]; 50 mg, Patient 5, dose 50 mg): 166 ng/mL
- concentration at 0 h ([5]; 50 mg, Patient 5, dose 50 mg, PREDOSE): 149 ng/mL
- concentration at 0 h ([5]; Max, 0 hr, after dosing of enoximone, 5 patients, raw data): 149 ng/mL
- concentration at 4 h ([5]; Max, 4 hrs, after dosing of enoximone, 5 patients, raw data): 268 ng/mL
- concentration at 8 h ([5]; Max, after dosing of enoximone, 5 patients, raw data): 166 ng/mL
- concentration at 0 h ([5]; Min, 0 hr, after dosing of enoximone, 5 patients, raw data): 7.95 ng/mL
- concentration at 2 h ([5]; Min, 2 hrs, after dosing of enoximone, 5 patients, raw data): 63.6 ng/mL
- concentration at 4 h ([5]; Min, 4 hrs, after dosing of enoximone, 5 patients, raw data): 44 ng/mL
- concentration at 8 h ([5]; Min, after dosing of enoximone, 5 patients, raw data): 20.7 ng/mL
